Counter-ions that a name gives are not always drawn. Like-named read-outs stand apart in the source and are kept apart here.
Assays:
[1] = tested on: P. falciparum strain 3D7; test: Antimalarial activity, P. falciparum lactate dehydrogenase growth inhibition assay; format: cell-based, Plasmodium falciparum; details: for fold decrease in antimalarial activity with respect to the reference compounds BR-23 / BR-25: Fg-9, Fa-21, Fg-14 vs BR-23, Ff-1, Ff-7, Ff-3 vs BR-25; for IC50: P. falciparum 3D7 in human erythrocytes, 72 h, LDH readout, read-out: IC50 a (In vitro IC50 values against P. falciparum); for fold decrease of antimalarial activity with respect to RSM932A: relative to RSM932A; for fold decrease in parasite lethality with respect to BR-31: relative to homologous BR-31
Protocol: Parasites of the P. falciparum strain 3D7 were grown in fresh group 0 positive human erythrocytes, obtained from the Centro Regional de Transfusion Sanguínea-SAS (Granada, Spain) and suspended at 5% haematocrit in RPMI 1640 containing 2% human serum, 0.2% NaHCO3, 0.5% Albumax II, 150 μM hypoxanthine, and […] gentamicin. Flasks were incubated at 37 °C, under 5% CO2 and 95% air mixture. […] The stock culture was then diluted with complete medium and non-parasitized erythrocytes to yield a haematocrit of 2% and parasitemia of 0.25%. Stock solutions of the test drugs were prepared at an initial concentration of 200 mM in DMSO, serially diluted and dispensed into triplicate in 96-well plates to yield final concentrations ranging from 0.0039 to 2 μM. The final well volume was 200 μL with a final concentration of DMSO 0.001%. Each plate also included positive growth controls, where only medium were added, and negative growth controls with 100 nM of chloroquine. […] A multidrop dispenser was used to add 50 μL of synchronized parasite culture per well. After 72 h of growth in presence of test compounds, the plates were stored frozen at −20 °C for at least 24 h. Next, they were thawed at room temperature. Parasite growth inhibition assays and IC50 determinations were carried out following the P. falciparum lactate dehydrogenase assay where parasite viability is quantified by measuring LDH activity upon APAD+ addition, a cofactor that is specific to the Plasmodium enzyme. To evaluate LDH activity, 140 μL of freshly made reaction mix, containing 143 mM sodium L-lactate, 143 μM APAD, 178.75 μM NBT, 1 U/mL diaphorase, 0.7% Tween 20 and 100 mM Tris-HCl (pH 8.0) were dispensed into plates. After 10 min of incubation in the dark at room temperature, absorbance was measured at 630 nm with a vmax precision multiwell plate reader from Molecular Devices, by using the accompanying SOFT maxPro software for analysis.

[2] = target: T1, PfCK (Plasmodium falciparum, UniProt Q8IM71); test: Spectrophotometric coupled enzymatic assay for PfCK activity (substrate choline); format: biochemical; details: for IC50: IC50 PfCK b (compound concentration required to inhibit PfCK enzyme by 50%), substrate choline 4 mM, ATP 2 mM
T1 construct: A truncated form of PfCK (Δ79-440) featuring an N-terminal 6× His-tag; 6xHis (N); host or cells: Escherichia coli BL21 (DE3) Star
T1 sequence (Q8IM71 entry or part of it): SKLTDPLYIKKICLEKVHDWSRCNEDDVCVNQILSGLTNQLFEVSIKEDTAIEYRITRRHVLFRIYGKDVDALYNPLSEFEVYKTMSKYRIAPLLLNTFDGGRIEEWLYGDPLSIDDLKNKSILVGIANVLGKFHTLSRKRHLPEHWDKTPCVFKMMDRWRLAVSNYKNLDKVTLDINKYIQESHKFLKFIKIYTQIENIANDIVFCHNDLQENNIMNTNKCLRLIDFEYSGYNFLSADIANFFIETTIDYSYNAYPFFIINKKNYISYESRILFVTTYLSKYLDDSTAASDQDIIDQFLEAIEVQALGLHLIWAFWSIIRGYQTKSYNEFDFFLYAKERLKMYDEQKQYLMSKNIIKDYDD
Protocol: A truncated form of PfCK (Δ79-440) featuring an N-terminal 6× His-tag was purchased from Genescript (Piscataway, NJ, USA), cloned into a pET-28a vector and transformed into Escherichia coli BL21 (DE3) Star cells (Invitrogen, Carlsbad, CA, USA). The transformed bacteria were cultured in Luria-Bertani (LB) medium at 37 °C until OD600 = 0.6 and the expression was induced with 1 mM isopropyl β-D-1-thiogalactopyranoside (IPTG). The cell culture was grown overnight at 20 °C and 180 rpm. Cells were pelleted by centrifugation at 10,000 rpm, resuspended in 50 mM Tris/HCl pH 7.5, 500 mM NaCl, 0.2 mM phenylmethylsulphonyl fluoride (PMSF, Sigma Aldrich, St. Luis, MO, USA), DNase (Sigma Aldrich, St. Luis, MO, USA), 0.5 mM β-mercaptoethanol (Sigma Aldrich, St. Luis, MO, USA) and sonicated. Separation of the soluble from the insoluble fraction was obtained by centrifugation at 15,000 rpm and 4 °C. The target enzyme was purified by a two-step purification protocol. In the first step, the cell lysate was incubated for 45 min with Ni-NTA resin (Qiagen, Venlo, The Netherlands) in a gravity column. Then, the column was washed with 40 column volumes (CV) of 50 mM Tris/HCl pH 7.5, 300 mM NaCl, 10 mM imidazole and 1 CV of 50 mM Tris/HCl pH 7.5, 300 mM NaCl, 40 mM imidazole. Finally, the His-tagged enzyme was eluted from the column using a 50 mM Tris/HCl pH 7.5, 300 mM NaCl, 400 mM imidazole buffer. A subsequent size-exclusion chromatography step was implemented to further polish the sample using a HiPrep 26/60 Sephacryl 100 HR column (GE Healthcare, Little Chalfont, Buckinghamshire, UK) previously equilibrated with 20 mM Tris/HCl pH 7.5, 150 mM NaCl buffer. This second purification step afforded a pure protein sample. The protein production yield was estimated to be nearly 2.5 mg of recombinant enzyme per liter of bacterial culture.
A spectrophotometric 96-well plate assay for PfCK activity was established based on an assay previously described. The reaction mix was composed as follows: 100 mM Tris/HCl pH 7.5, 100 mM KCl, 10 mM MgCl2, 0.5 mM phosphoenolpyruvate, 0.25 mM NADH, 4 U of pyruvate kinase, 5 U lactate dehydrogenase, 2 mM ATP, 4 mM choline chloride and different concentrations of the selected compounds. All the necessary compounds for the assay were purchased from Sigma Aldrich (St. Luis, MO, USA) and the final assay volume was 200 μL. The enzymatic reaction was initiated by the addition of the enzyme at less than 10 nM concentration and the reaction rates were measured by monitoring the decrease in the absorbance at 340 nm for 20 min at room temperature using a Spark10M instrument (Tecan). Finally, the IC50 values for each compound were determined by plotting the enzyme fractional activity (f.a.) against the logarithm of compound concentration (log[I]). Curve-fitting was performed with a dose-response curve from Origin (OriginLab Corporation, Northampton, MA, USA), using the following equation: f.a.=1/1+10^logIC50−logI
All data points were collected in triplicate and the final dose-response curves were plotted with MATLAB (R2018a (9.4.0.813654), 2018, MathWorks, Natick, MA, USA). See curves in Figure S1 in Supplementary Materials.

[3] = Plasmodium falciparum, Erythrocyte
[4] = read-out: PfCK Fractional Activity at 25 µM

melting point [°C] | Compound | IC50 [1, 3] [nM] | remaining activity at 25 µM [2, 4] [%] | other results
282 to 284 | [Br-].[Br-].c1cc2c(N3CCCCC3)nc[n+](Cc3ccc(CCCCc4ccc(C[n+]5cnc(N6CCCCC6)c6ccsc65)cc4)cc3)c2s1 | – | – | –
312 to 315 | [Br-].[Br-].c1cc2c(s1)c(N1CCCC1)nc[n+]2Cc1ccc(-c2ccc(C[n+]3cnc(N4CCCC4)c4sccc43)cc2)cc1 [Fa-21, 1,1’-([1,1’-biphenyl]-4,4’-diylbis(methylene))bis(4-(pyrrolidin-1-yl)thieno[3,2-d]pyrimidin-1-ium) bromide] | 13.7 | – | fold decrease in antimalarial activity with respect to the reference compounds BR-23 / BR-25 [1]: 10 fold
321 to 323 | [Br-].[Br-].c1cc2c(s1)c(N1CCCCCC1)nc[n+]2Cc1ccc(CCc2ccc(C[n+]3cnc(N4CCCCCC4)c4sccc43)cc2)cc1 [Fa-23, 1,1’-((ethane-1,2-diylbis(4,1-phenylene))bis(methylene))bis(4-(azepan-1-yl)thieno[3,2-d]pyrimidin-1-ium) bromide] | 67.8 | – | –
– | c1cc2c(s1)c(N1CCCCC1)nc[n+]2Cc1ccc(-c2ccc(C[n+]3cnc(N4CCCCC4)c4sccc43)cc2)cc1 [Fa-24, 1,1’-([1,1’-biphenyl]-4,4’-diylbis(methylene))bis(4-(piperidin-1-yl)thieno[3,2-d]pyrimidin-1-ium) bromide] | 57.8 | 57.1 ± 5.15 | –
314 to 316 | [Br-].[Br-].c1cc2c(s1)c(N1CCCCC1)nc[n+]2Cc1ccc(CCc2ccc(C[n+]3cnc(N4CCCCC4)c4sccc43)cc2)cc1 [Fa-25, 1,1’-((ethane-1,2-diylbis(4,1-phenylene))bis(methylene))bis(4-(piperidin-1-yl)thieno[3,2-d]pyrimidin-1-ium) bromide] | 34.7 | – | –
– | [Br-].[Br-].c1cc2c(s1)c(N1CCCC1)cc[n+]2Cc1ccc(CCCCc2ccc(C[n+]3ccc(N4CCCC4)c4sccc43)cc2)cc1 [Ff-1, 4,4’-((butane-1,4-diylbis(4,1-phenylene))bis(methylene))bis(7-(pyrrolidin-1-yl)thieno[3,2-b]pyridin-4-ium) bromide] | 90.1 | 47 ± 3.53 | IC50 [2]: 10900 ± 1330 nM; fold decrease in antimalarial activity with respect to the reference compounds BR-23 / BR-25 [1]: 10 fold
288 to 290 | [Br-].[Br-].c1cc2c(N3CCCC3)nc[n+](Cc3ccc(CCCCc4ccc(C[n+]5cnc(N6CCCC6)c6ccsc65)cc4)cc3)c2s1 [Ff-3, 1,1’-((butane-1,4-diylbis(4,1-phenylene))bis(methylene))bis(4-(pyrrolidin-1-yl)thieno[2,3-d]pyrimidin-1-ium) bromide] | 38.8 | – | fold decrease in antimalarial activity with respect to the reference compounds BR-23 / BR-25 [1]: 10 fold
– | c1cc2c(s1)c(N1CCCCCC1)nc[n+]2Cc1ccc(OCCOc2ccc(C[n+]3cnc(N4CCCCCC4)c4sccc43)cc2)cc1 [Ff-34, 1,1′-(((ethane-1,2-diylbis(oxy))bis(4,1-phenylene))bis(methylene))bis(4-(azepan-1-yl)thieno[3,2-d]pyrimidin-1-ium) bromide] | 87.9 | 52.2 ± 12.4 | remaining activity at 25 µM ([2]; read-out: residual enzyme activity): 52.2%
– | c1cc2c(s1)c(N1CCCCCC1)cc[n+]2Cc1ccc(-c2ccc(C[n+]3ccc(N4CCCCCC4)c4sccc43)cc2)cc1 [Fg-10, 1,1’-([1,1’-biphenyl]-4,4’-diylbis(methylene))bis(7-(azepan-1-yl)thieno[3,2-b]pyridin-4-ium) bromide] | 53 | 44.7 ± 8.55 | –
– | c1cc2c(s1)c(N1CCCC1)cc[n+]2Cc1ccc(-c2ccc(C[n+]3ccc(N4CCCC4)c4sccc43)cn2)nc1 [Fg-12, 4,4’-([2,2’-bipypidine]-5,5’-diylbis(methylene))bis(7-(pyrrolidin-1-yl)thieno[3,2-b]pyridin-4-ium bromide)] | – | – | IC50 [1]: 305 nM
300 to 302 | [Br-].[Br-].c1cc2c(N3CCCC3)nc[n+](Cc3ccc(-c4ccc(C[n+]5cnc(N6CCCC6)c6ccsc65)cc4)cc3)c2s1 [Fg-14, 1,1’-([1,1’-biphenyl]-4,4’-diylbis(methylene))bis(4-(pyrrolidin-1-yl)thieno[2,3-d]pyrimidin-1-ium) bromide] | 20.6 | – | fold decrease in antimalarial activity with respect to the reference compounds BR-23 / BR-25 [1]: 10 fold
– | c1cc2c(N3CCCCC3)nc[n+](Cc3ccc(-c4ccc(C[n+]5cnc(N6CCCCC6)c6ccsc65)cc4)cc3)c2s1 [Fg-30, 1,1’-([1,1’-biphenyl]-4,4’-diylbis(methylene))bis(4-(piperidin-1-yl)thieno[2,3-d]pyrimidin-1-ium) bromide] | 27.9 | 54.8 ± 7.2 | –
– | CN(c1ccccc1)c1nc[n+](Cc2ccc(-c3ccc(C[n+]4cnc(N(C)c5ccccc5)c5sccc54)cc3)cc2)c2ccsc12.[Br-].[Br-] [Fp-1, 1,1’-([1,1’-biphenyl]-4,4’-diylbis(methylene))bis(4-(methyl(phenyl)amino)thieno[3,2-d]pyrimidin-1-ium)bromide] | 142 | 12.9 ± 3.32 | IC50 [2]: 7270 ± 230 nM; fold decrease of antimalarial activity with respect to RSM932A [1]: up to 10 fold; fold decrease in parasite lethality with respect to BR-31 [1]: 10 fold
– | CN(c1ccc(Cl)cc1)c1nc[n+](Cc2ccc(-c3ccc(C[n+]4cnc(N(C)c5ccc(Cl)cc5)c5ccsc54)cc3)cc2)c2sccc12.[Br-].[Br-] [Fp-8, 1,1’-([1,1’-biphenyl]-4,4’-diylbis(methylene))bis(4-((4-chlorophenyl)(methyl)amino)thieno[2,3-d]pyrimidin-1-ium) bromide] | 282 | 8.1 ± 5.8 | IC50 [2]: 4170 ± 480 nM; fold decrease of antimalarial activity with respect to RSM932A [1]: up to 10 fold; fold decrease in parasite lethality with respect to BR-31 [1]: 10 fold

Compound | melting point [°C] | IC50 [1, 3] [nM] | remaining activity at 25 µM [2, 4] [%] | other results
c1cc2c(s1)c(N1CCCCCC1)cc[n+]2Cc1ccc(-c2ccc(C[n+]3ccc(N4CCCCCC4)c4sccc43)cc2)cc1 (as salt: bromide) [Fg-10, 1,1’-([1,1’-biphenyl]-4,4’-diylbis(methylene))bis(7-(azepan-1-yl)thieno[3,2-b]pyridin-4-ium) bromide] | 220 to 222 | – | – | –

Reference: article PMC8621770, “New Compounds with Bioisosteric Replacement of Classic Choline Kinase Inhibitors Show Potent Antiplasmodial Activity” (Pharmaceutics, 2021)
